According to US4499269A, “Fused 1,3,5-triazines” (Fisons plc, priority 1982, dated 1985):

Columns and labels:
[1] = system: delayed contact sensitivity to oxazolone (increase of ear thickness); assay: Delayed contact sensitivity to oxazolone in mice (Example A); format: in vivo; settings: for inhibition of increased ear thickness: 24 hours after challenge
Method: This response is a measure of a cell-mediated immune response which is dependent on the activity of thymus-derived lymphocytes. Mice are sensitised with 100 μl of oxazolone and are subsequently challenged with 15 μl of 3% oxazolone on their right ears on day 7. The resulting cell-mediated response is measured 24 hours after challenge by assessing the increase of ear thickness using a dial gauge. The unchallenged left ears act as controls.

[2] = system: rejection of skin grafts; assay: Rejection of tailskin grafts in mice, graft survival (Example B); format: in vivo, mice (CBA strain donors, Lac/a strain recipients)
Method: The tailskin grafting method of Bailey and Usania (Transplantation Bulletin 7, 424-5, 1960) was used.
Sections of tailskin from donor CBA strain mice (agonti) were grafted onto the tails of 16 Lac/a strain mice (albino). Test compound was given from 2 days prior to grafting until graft loss at a dose of 50 mg/kg/day in 1% "Tween 80"/saline vehicle by the intraperitoneal route. Graft condition was assessed daily and mean graft survival time (days) of vehicle, and drug tested groups, was compared.

[3] = system: delayed hypersensitivity reaction to PPD; assay: Delayed hypersensitivity reaction to PPD in guinea pigs, topical under occlusion (Example C); format: in vivo; settings: for % Inhibition 24h after challenge: Diameter of erythema / % Inhibition 24h after challenge: Erythema score / % Inhibition 24h after challenge: Increase in skin thickness: topical under occlusion, n=6
Method: Male guinea pigs weighing 250-300 g were sensitised by a subcutaneous injection of Freunds Complete Adjuvant (Difco) in saline. Fourteen days following sensitisation animals were challenged intradermally into a shaved flank with 50 μg of purified protein derivative PPD (in 0.1 ml of saline). Changes in skin thickness were determined immediately before and 24 h and 48 h after antigen challenge. In addition, the diameter of reaction and a semiquantitative estimate of the degree of erythema were determined at 24 h and 48 h.
The compound of Example 1 was applied topically under an occlusive dressing. This consisted of adding a solution of the compound in dimethylacetamide (0.3 ml) to a filter paper square (4×4 cm) backed by surgical tape placed on the challenge site and held in place by adhesive bandage encircling the torso of the animal. The dressing was applied 10 min after challenge and removed 24 h later. Control animals received dimethylacetamide alone to the challenge site.
The effect of the compound of Example 1 applied under occlusion, with antigen challenge, on the delayed hypersensitivity reaction to PPD in guinea pigs (n=6)

Compound: COc1ccc2c(c1)sc1nc(N)nc(=Nc3ccccc3)n12 [Example 1, 2-Amino-8-methoxy-4-phenylimino-4H-1,3,5-triazino[2,1-b]benzothiazole]
- inhibition of delayed contact sensitivity to oxazolone ([1]; mice, result in words): inhibit a delayed contact sensitivity to oxazolone in mice
- inhibition of increased ear thickness ([1]; single dose 50 mg/kg intraperitoneal on day 1 relative to sensitisation): 44%
- inhibition of increased ear thickness ([1]; single dose 50 mg/kg intraperitoneal on day 2 relative to sensitisation): 44%
- inhibition of increased ear thickness ([1]; single dose 50 mg/kg intraperitoneal on day 3 relative to sensitisation): 49%
- inhibition of increased ear thickness ([1]; single dose 50 mg/kg intraperitoneal on day 7 relative to sensitisation): 61%
- inhibition of increased ear thickness ([1]; single dose 50 mg/kg intraperitoneal on one of days -1, 0, 1, 2, 3 or 7 relative to sensitisation, result in words): inhibition of increased ear thickness
- prolongation of skin graft survival ([2]; 50 mg/kg/day intraperitoneal from 2 days prior to grafting until graft loss, versus vehicle, significant): 2.5 days
- suppression of the rejection of skin grafts ([2]; mice, result in words): suppress the rejection of skin grafts in mice
- % Inhibition 24h after challenge: Diameter of erythema ([3]; 1% in dimethylacetamide): 5%
- % Inhibition 24h after challenge: Erythema score ([3]; 1% in dimethylacetamide): 20%
- % Inhibition 24h after challenge: Increase in skin thickness ([3]; 1% in dimethylacetamide): 20%
- inhibition of the increase in skin thickness ([3]; 1 to 3% in dimethylacetamide, 24 hours post challenge, result in words): dose dependent inhibition of the increase in skin thickness
- reaction diameters and erythema scores ([3]; 1 to 3% in dimethylacetamide, compared with dimethylacetamide controls, result in words): significantly reduced the reaction diameters and erythema scores
- % Inhibition 24h after challenge: Diameter of erythema ([3]; 2% in dimethylacetamide): 16%
- % Inhibition 24h after challenge: Erythema score ([3]; 2% in dimethylacetamide): 32%
- % Inhibition 24h after challenge: Increase in skin thickness ([3]; 2% in dimethylacetamide): 35%
- % Inhibition 24h after challenge: Diameter of erythema ([3]; 3% in dimethylacetamide): 34%
- % Inhibition 24h after challenge: Erythema score ([3]; 3% in dimethylacetamide): 63%
- % Inhibition 24h after challenge: Increase in skin thickness ([3]; 3% in dimethylacetamide): 50%
- suppression of delayed hypersensitivity reaction ([3]; guinea pigs, dosed topically, result in words): suppress a delayed hypersensitivity reaction in guinea pigs
